Reference: the supplement of paper PMC10307832

Key:
Experiment in all cases: relative viability (nuclei count vs DMSO), 5 days (fraction); higher = more cells survive
KIN001-266 + Palbociclib = compound: CCN1CCC(CC1)N2C=C(N=N2)CNC3=CC4=C(C(=CN=C4C(=C3)Cl)C#N)NC5=CC(=C(C=C5)F)Cl [KIN001-266] + CC(=O)c1c(C)c2cnc(Nc3ccc(N4CCNCC4)cn3)nc2n(C2CCCC2)c1=O [Palbociclib] (partner 0.5 µM)
Outline: (§1)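 Dosing by pin tool came one day after lung cancer cell lines were seeded in 1536-well plates, using either one drug or a fixed anchor-drug dose plus five library-drug doses (not always all listed) in √10 steps. After 5 days, nuclei were counted on 4× images. Relative viability is treated-well nuclei count divided by vehicle-well nuclei count, and values are medians of duplicate plates.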

KIN001-266 + Bortezomib = compound: CCN1CCC(CC1)N2C=C(N=N2)CNC3=CC4=C(C(=CN=C4C(=C3)Cl)C#N)NC5=CC(=C(C=C5)F)Cl [KIN001-266] + CC(C)C[C@H](NC(=O)[C@H](Cc1ccccc1)NC(=O)c1cnccn1)B(O)O [Bortezomib] (partner 0.002 µM)
Outline: as §1

KIN001-266 + Foretinib = compound: CCN1CCC(CC1)N2C=C(N=N2)CNC3=CC4=C(C(=CN=C4C(=C3)Cl)C#N)NC5=CC(=C(C=C5)F)Cl [KIN001-266] + COc1cc2c(Oc3ccc(NC(=O)C4(C(=O)Nc5ccc(F)cc5)CC4)cc3F)ccnc2cc1OCCCN1CCOCC1 [Foretinib] (partner 0.25 µM)
Outline: as §1

KIN001-266 + Pictilisib = compound: CCN1CCC(CC1)N2C=C(N=N2)CNC3=CC4=C(C(=CN=C4C(=C3)Cl)C#N)NC5=CC(=C(C=C5)F)Cl [KIN001-266] + CS(=O)(=O)N1CCN(Cc2cc3nc(-c4cccc5[nH]ncc45)nc(N4CCOCC4)c3s2)CC1 [Pictilisib] (partner 1 µM)
Outline: as §1

| Cell Line | relative viability (KIN001-266 + Palbociclib; first compound 0.08 µM) | relative viability (KIN001-266 + Palbociclib; first compound 0.253 µM) | relative viability (KIN001-266 + Palbociclib; first compound 0.8 µM) | relative viability (KIN001-266 + Palbociclib; first compound 2.53 µM) | relative viability (KIN001-266 + Palbociclib; first compound 8 µM) | relative viability (KIN001-266 + Bortezomib; first compound 0.08 µM) | relative viability (KIN001-266 + Bortezomib; first compound 0.253 µM) | relative viability (KIN001-266 + Bortezomib; first compound 0.8 µM) | relative viability (KIN001-266 + Bortezomib; first compound 2.53 µM) | relative viability (KIN001-266 + Bortezomib; first compound 8 µM) | relative viability (KIN001-266 + Foretinib; first compound 0.08 µM) | relative viability (KIN001-266 + Foretinib; first compound 0.253 µM) | relative viability (KIN001-266 + Foretinib; first compound 0.8 µM) | relative viability (KIN001-266 + Foretinib; first compound 2.53 µM) | relative viability (KIN001-266 + Foretinib; first compound 8 µM) | relative viability (KIN001-266 + Pictilisib; first compound 0.08 µM) | relative viability (KIN001-266 + Pictilisib; first compound 0.253 µM) | relative viability (KIN001-266 + Pictilisib; first compound 0.8 µM) | relative viability (KIN001-266 + Pictilisib; first compound 2.53 µM) | relative viability (KIN001-266 + Pictilisib; first compound 8 µM) |
| --- | --- | --- | --- | --- | --- | --- | --- | --- | --- | --- | --- | --- | --- | --- | --- | --- | --- | --- | --- | --- |
| NCI-H1651 | 0.528 | 0.518 | 0.525 | 0.533 | 0.531 | 0.98 | 0.969 | 0.869 | 0.93 | 0.897 | 0.805 | 0.71 | 0.774 | 0.757 | 0.731 | 0.582 | 0.601 | 0.51 | 0.633 | 0.435 |
| NCI-H1666 | 0.61 | 0.668 | 0.601 | 0.664 | 0.655 | 1.03 | 0.826 | 0.668 | 0.785 | 0.686 | 0.954 | 0.95 | 0.938 | 0.92 | 0.892 | 0.608 | 0.523 | 0.49 | 0.367 | 0.347 |
| NCI-H1734 | 0.342 | 0.539 | 0.345 | 0.321 | 0.294 | 1.07 | 0.842 | 0.822 | 0.805 | 0.768 | 0.951 | 0.801 | 0.704 | 0.813 | 0.798 | 0.521 | 0.452 | 0.454 | 0.418 | 0.43 |
| NCI-H1755 | 0.43 | 0.447 | 0.432 | 0.443 | 0.413 | 0.956 | 0.972 | 0.847 | 0.918 | 0.884 | 0.96 | 0.913 | 0.894 | 0.862 | 0.83 | 0.463 | 0.447 | 0.387 | 0.458 | 0.398 |
| NCI-H1915 | 0.546 | 0.599 | 0.514 | 0.543 | 0.389 | 0.979 | 0.986 | 0.997 | 0.877 | 0.898 | 1.14 | 1.06 | 1.07 | 1.13 | 1.11 | 1.03 | 0.949 | 0.947 | 1.05 | 0.781 |
| NCI-H1975 | 0.709 | 0.553 | 0.551 | 0.609 | 0.505 | 0.373 | 0.462 | 0.404 | 0.336 | 0.336 | 0.972 | 0.96 | 0.966 | 1.05 | 1.04 | 0.316 | 0.308 | 0.304 | 0.294 | 0.326 |
| NCI-H1993 | 0.68 | 0.653 | 0.66 | 0.688 | 0.58 | 1.04 | 1.29 | 1.06 | 1.01 | 0.858 | 0.86 | 0.777 | 0.758 | 0.749 | 0.675 | 0.872 | 0.691 | 0.967 | 0.837 | 0.976 |
